This passage reports IC50 results from patent US9394289B2, “Inhibitors of c-fms kinase” (Janssen Pharmaceutica NV, priority 2006, dated 2016).

Structures are written as SMILES. Where a name gives a salt, the structure may show the parent alone.

In assay [1] the test system is mouse bone-marrow derived macrophages (BMDM). Description: CSF-1-driven mouse bone-marrow derived macrophages proliferation assay (BrDU incorporation). Type of assay: cell-based. As to conditions: Mus musculus, BMDM, 30 hrs culture, read-out: mCSF driven proliferation BMDM (Mouse) IC-50. The procedure: CSF-1-Driven Mouse Bone-Marrow Derived Macrophages Assay
Macrophages are derived by culturing mouse bone marrow in alpha-MEM supplemented with 10% FCS and 50 ng/ml recombinant mouse CSF-1 in bacteriologic dishes. On the sixth day, macrophages are detached from dishes, washed, and resuspended to 0.05 million cells/ml in alpha-MEM containing 10% FCS. One hundred ul of cell suspension are distributed per well into 96 well culture plates. Wells are further supplemented with the addition of 50 ul media containing 15 ng/ml CSF-1, 3 uM Indomethacin, and 3× of a dilution series of test compounds. The cells are cultured for 30 hrs at 37 degrees and 5% CO2. During the final six hours, cultures are supplemented with an additional 30 ul of media containing a 1:500 dilution of bromodeoxyuridine (BrDU). At the end of the culture period, the plates are spun at 1000 RPM for 1 minute and 130 ul of media is removed with a pipet and replaced with 150 ul of fixative solution for 1 hour @ room temperature. The fixative is then dispelled from the plates and the plates allowed to air dry. Incorporation of BrDU into the fixed, dried cells is quantified using a specific ELISA.

A further assay has as its target c-fms (Homo sapiens (Human), UniProt P07333). The experiment in a line: Autophosphorylation fluorescence polarization competition immunoassay for c-fms inhibition. As to conditions: averages of three independent measurements; table head says 1 nM c-fms, method says 10 nM c-fms, 1 mM ATP; read-out: 1 nM c-fms; peptide Pi assay IC-50. Type of assay: biochemical. The procedure: Fluorescence Polarization Competition Immunoassay
The assay buffer used was 100 mM 4-(2-hydroxyethyl)piperazine 1-ethanesulfonic acid (HEPES), pH 7.5, 1 mM 1,4-dithio-DL-threitol (DTT), 0.01% (v/v) Tween-20. Compounds were diluted in assay buffer containing 4% dimethylsulfoxide (DMSO) just prior to the assay. To each well, 5 μL of compound were added followed by the addition of 3 μL of a mix containing 33 nM c-fms (Johnson & Johnson PRD) and 16.7 mM MgCl2 (Sigma) in assay buffer. The kinase reaction was initiated by adding 2 μL of 5 mM ATP (Sigma) in assay buffer. […] Control reactions were ran in each plate: in positive and negative control wells, assay buffer (made 4% in DMSO) was substituted for the compound; in addition, positive control wells received 1.2 μL of 50 mM ethylenediaminetetraaceticacid (EDTA).
The plates were incubated at room temperature for 45 min. At the end of the incubation, the reaction was quenched with 1.2 μL of 50 mM EDTA (EDTA was not added to the positive control wells at this point; see above). Following a 5-min incubation, each well received 10 μL of a 1:1:3 mixture of anti-phosphotyrosine antibody, 10×, PTK green tracer, 10× (vortexed), FP dilution buffer, respectively (all from PanVera, cat. #P2837). The plate was covered, incubated for 30 min at room temperature and the fluorescence polarization was read on the Analyst. The instrument settings were: 485 nm excitation filter; 530 nm emission filter; Z height: middle of well; G factor: 0.93. […] The reported IC50 values are averages of three independent measurements.
A general note: In fluorescence polarisation assays a small probe gives low polarisation when free and higher when bound to something large.

c-fms, sequence (P07333 20-972): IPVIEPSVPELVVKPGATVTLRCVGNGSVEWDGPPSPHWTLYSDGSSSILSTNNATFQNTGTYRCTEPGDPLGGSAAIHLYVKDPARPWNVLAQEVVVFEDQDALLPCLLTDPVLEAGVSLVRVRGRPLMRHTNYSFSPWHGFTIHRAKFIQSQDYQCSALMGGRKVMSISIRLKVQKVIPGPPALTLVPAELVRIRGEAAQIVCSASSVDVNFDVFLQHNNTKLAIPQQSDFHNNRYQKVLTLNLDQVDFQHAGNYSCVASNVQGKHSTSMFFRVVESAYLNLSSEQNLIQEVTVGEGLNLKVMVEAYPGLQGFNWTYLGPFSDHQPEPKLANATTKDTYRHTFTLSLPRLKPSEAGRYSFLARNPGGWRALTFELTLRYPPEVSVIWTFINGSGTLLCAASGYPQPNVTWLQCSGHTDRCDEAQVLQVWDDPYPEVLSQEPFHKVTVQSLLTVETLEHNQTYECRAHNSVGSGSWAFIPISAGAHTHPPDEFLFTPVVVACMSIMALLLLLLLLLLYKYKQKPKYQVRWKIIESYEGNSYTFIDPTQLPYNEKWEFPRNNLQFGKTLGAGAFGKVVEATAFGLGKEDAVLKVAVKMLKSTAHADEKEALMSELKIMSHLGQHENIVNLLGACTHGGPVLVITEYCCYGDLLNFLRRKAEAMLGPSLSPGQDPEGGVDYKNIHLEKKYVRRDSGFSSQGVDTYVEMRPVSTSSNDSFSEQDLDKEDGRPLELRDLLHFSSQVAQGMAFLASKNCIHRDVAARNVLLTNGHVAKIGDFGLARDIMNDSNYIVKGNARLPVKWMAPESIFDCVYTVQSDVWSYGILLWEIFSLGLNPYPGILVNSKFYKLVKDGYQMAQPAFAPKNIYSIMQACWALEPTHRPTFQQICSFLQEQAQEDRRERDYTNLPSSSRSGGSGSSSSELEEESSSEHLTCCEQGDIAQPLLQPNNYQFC

Turning to `CC1(C)CC=C(c2cc(C3(O)CCOCC3)ccc2NC(=O)c2ncc(C#N)[nH]2)CC1` [Example 1, 5-Cyano-1H-imidazole-2-carboxylic acid [2-(4,4-dimethyl-cyclohex-1-enyl)-4-(4-hydroxy-tetrahydro-pyran-4-yl)-phenyl]-amide], the IC50 in assay [1] came to 4 nM; at c-fms, 0.7 nM.

`CN(C)CCOC1(c2ccc(NC(=O)c3ncc(C#N)[nH]3)c(C3=CCC(C)(C)CC3)c2)CCOCC1` [Example 2, 5-Cyano-1H-imidazole-2-carboxylic acid [4-[4-(2-dimethylamino-ethoxy)-tetrahydro-pyran-4-yl]-2-(4,4-dimethyl-cyclohex-1-enyl)-phenyl]-amide trifluoroacetic acid salt]: the IC50 in assay [1] was 2.2 nM; at c-fms, 0.42 nM.

`CC1(C)CC=C(c2cc(C3(OCC(=O)O)CCOCC3)ccc2NC(=O)c2ncc(C#N)[nH]2)CC1` [Example 3, {4-[4-[(5-Cyano-1H-imidazole-2-carbonyl)-amino]-3-(4,4-dimethyl-cyclohex-1-enyl)-phenyl]-tetrahydro-pyran-4-yloxy}-acetic acid]: the IC50 at c-fms is 1.7 nM.

For the molecule `COCCNC1(c2ccc(NC(=O)c3nc(C#N)c[nH]3)c(C3=CCC(C)(C)CC3)c2)CCOCC1` [Example 4, 4-Cyano-1H-imidazole-2-carboxylic acid {2-(4,4-dimethyl-cyclohex-1-enyl)-4-[4-(2-methoxy-ethylamino)-tetrahydro-pyran-4-yl]-phenyl}-amide], the IC50 in assay [1] was 14 nM; on c-fms it was 1.8 nM.

Turning to `CC1(C)CC=C(c2cc(C3(N)CCOCC3)ccc2NC(=O)c2ncc(C#N)[nH]2)CC1` [Example 5, 5-Cyano-1H-imidazole-2-carboxylic acid [4-(4-amino-tetrahydro-pyran-4-yl)-2-(4,4-dimethyl-cyclohex-1-enyl)-phenyl]-amide], the IC50 is 2.4 nM in assay [1] and 0.5 nM on c-fms.

Regarding `CC1(C)CC=C(c2cc(C3(N4CCOCC4)CCOCC3)ccc2NC(=O)c2ncc(C#N)[nH]2)CC1` [Example 6, 5-Cyano-1H-imidazole-2-carboxylic acid [2-(4,4-dimethyl-cyclohex-1-enyl)-4-(4-morpholin-4-yl-tetrahydro-pyran-4-yl)-phenyl]-amide], the IC50 in assay [1] was 15 nM; at c-fms it was 1.6 nM.

On to `CN(C)C1(c2ccc(NC(=O)c3ncc(C#N)[nH]3)c(C3=CCC(C)(C)CC3)c2)CCOCC1` [Example 7, 5-Cyano-1H-imidazole-2-carboxylic acid [4-(4-dimethylamino-tetrahydro-pyran-4-yl)-2-(4,4-dimethyl-cyclohex-1-enyl)-phenyl]-amide], for which the IC50 in assay [1] is 11 nM; on c-fms, 0.67 nM.

For `CN1CCN(C2(c3ccc(NC(=O)c4ncc(C#N)[nH]4)c(C4=CCC(C)(C)CC4)c3)CCOCC2)CC1` [Example 8, 5-Cyano-1H-imidazole-2-carboxylic acid {2-(4,4-dimethyl-cyclohex-1-enyl)-4-[4-(4-methyl-piperazin-1-yl)-tetrahydro-pyran-4-yl]-phenyl}-amide], the IC50 in assay [1] is 15 nM; at c-fms it was 4 nM.

Consider `CC1(C)CC=C(c2cc(C3(N4CCNCC4)CCOCC3)ccc2NC(=O)c2ncc(C#N)[nH]2)CC1` [Example 9, 5-Cyano-1H-imidazole-2-carboxylic acid [2-(4,4-dimethyl-cyclohex-1-enyl)-4-(4-piperazin-1-yl-tetrahydro-pyran-4-yl)-phenyl]-amide], for which the IC50 is 100 nM in assay [1] and 1.9 nM at c-fms.

For `CC1(C)CC=C(c2cc(C3(N4CCN(CC(=O)O)CC4)CCOCC3)ccc2NC(=O)c2ncc(C#N)[nH]2)CC1` [Example 10, (4-{4-[4-[(5-Cyano-1H-imidazole-2-carbonyl)-amino]-3-(4,4-dimethyl-cyclohex-1-enyl)-phenyl]-tetrahydro-pyran-4-yl}-piperazin-1-yl)-acetic acid trifluoroacetic acid salt], the IC50 in assay [1] was above 300 nM; on c-fms it was 7.9 nM.

Turning to `CC1(C)CC=C(c2cc(C3(O)CCSCC3)ccc2NC(=O)c2nc(C#N)c[nH]2)CC1` [Example 11, 4-Cyano-1H-imidazole-2-carboxylic acid [2-(4,4-dimethyl-cyclohex-1-enyl)-4-(4-hydroxy-tetrahydro-thiopyran-4-yl)-phenyl]-amide], the IC50 in assay [1] was 35 nM; at c-fms it was 2.9 nM.

As for `CC1(C)CC=C(c2cc(C3(O)CCS(=O)(=O)CC3)ccc2NC(=O)c2nc(C#N)c[nH]2)CC1` [Example 12, 4-Cyano-1H-imidazole-2-carboxylic acid [2-(4,4-dimethyl-cyclohex-1-enyl)-4-(4-hydroxy-1,1-dioxo-hexahydro-1λ^6-thiopyran-4-yl)-phenyl]-amide], the IC50 in assay [1] was 31 nM; on c-fms, 1.1 nM.

As to `CC(=O)N1CCC(N)(c2ccc(NC(=O)c3nc(C#N)c[nH]3)c(C3=CCC(C)(C)CC3)c2)CC1` [Example 13, 4-Cyano-1H-imidazole-2-carboxylic acid [4-(1-acetyl-4-amino-piperidin-4-yl)-2-(4,4-dimethyl-cyclohex-1-enyl)-phenyl]-amide acetic acid salt], the figures for the IC50 (in assay [1]; at c-fms) were 8.1 nM and 0.8 nM, respectively.

As to `N#Cc1c[nH]c(C(=O)Nc2ccc(C3(O)CCSCC3)cc2C2=CCCCC2)n1` [Example 14, 4-Cyano-1H-imidazole-2-carboxylic acid [2-cyclohex-1-enyl-4-(4-hydroxy-tetrahydro-thiopyran-4-yl)-phenyl]-amide], the figures for the IC50 (in assay [1]; on c-fms) were 9.5 nM and 3.9 nM, respectively.

For `N#Cc1c[nH]c(C(=O)Nc2ccc(C3(O)CCS(=O)(=O)CC3)cc2C2=CCCCC2)n1` [Example 15, 4-Cyano-1H-imidazole-2-carboxylic acid [2-cyclohex-1-enyl-4-(4-hydroxy-1,1-dioxo-hexahydro-1λ^6-thiopyran-4-yl)-phenyl]-amide], in assay [1], the IC50 was found to be 14 nM.

With `COC(=O)C1(c2ccc(NC(=O)c3nc(C#N)c[nH]3)c(C3=CCC(C)(C)CC3)c2)CCOCC1` [Example 16, 4-[4-[(4-Cyano-1H-imidazole-2-carbonyl)-amino]-3-(4,4-dimethyl-cyclohex-1-enyl)-phenyl]-tetrahydro-pyran-4-carboxylic acid methyl ester], the IC50 is 46 nM in assay [1] and 0.67 nM at c-fms.

Turning to `CC1(C)CC=C(c2cc(C3(C(=O)O)CCOCC3)ccc2NC(=O)c2nc(C#N)c[nH]2)CC1` [Example 17, 4-[4-[(4-Cyano-1H-imidazole-2-carbonyl)-amino]-3-(4,4-dimethyl-cyclohex-1-enyl)-phenyl]-tetrahydro-pyran-4-carboxylic acid], the figures for the IC50 (in assay [1]; at c-fms) were above 300 nM and 0.56 nM, respectively.

Turning to `N#Cc1c[nH]c(C(=O)Nc2ccc(C3(C(=O)O)CCOCC3)cc2C2=CCCCC2)n1` [Example 18, 4-{4-[(4-Cyano-1H-imidazole-2-carbonyl)-amino]-3-cyclohex-1-enyl-phenyl}-tetrahydro-pyran-4-carboxylic acid], the IC50 was determined as 300 nM in assay [1] and 3.6 nM on c-fms.

Consider `N#Cc1c[nH]c(C(=O)Nc2ccc(C3(C(N)=O)CCOCC3)cc2C2=CCCCC2)n1` [Example 19, 4-Cyano-1H-imidazole-2-carboxylic acid [4-(4-carbamoyl-tetrahydro-pyran-4-yl)-2-cyclohex-1-enyl-phenyl]-amide], for which the results for the IC50 (in assay [1]; on c-fms) were 19 nM and 1.8 nM, respectively.

In the case of `N#Cc1c[nH]c(C(=O)Nc2ccc(C3(CO)CCOCC3)cc2C2=CCCCC2)n1` [Example 20, 4-Cyano-1H-imidazole-2-carboxylic acid [2-cyclohex-1-enyl-4-(4-hydroxymethyl-tetrahydro-pyran-4-yl)-phenyl]-amide], the IC50 in assay [1] worked out at 20 nM; at c-fms it was 1.8 nM.

For `N#Cc1c[nH]c(C(=O)Nc2ccc(C3(CN4CCOCC4)CCOCC3)cc2C2=CCCCC2)n1` [Example 21, 4-Cyano-1H-imidazole-2-carboxylic acid [2-cyclohex-1-enyl-4-(4-morpholin-4-ylmethyl-tetrahydro-pyran-4-yl)-phenyl]-amide], the IC50 is 7.9 nM in assay [1] and 1.6 nM on c-fms.
